Values of other authors, collected in US20120178700A1, “PEPTIDOMIMETIC MACROCYCLES” (Aileron Therapeutics, Inc., priority 2008, published 2012).

Tests used:
c-Myc/Max dimerization = c-Myc/Max dimerization (Homo sapiens, UniProt P01106); settings: for preference for inhibition of c-Myc/Max association over related transcription factors: in the presence of their DNA binding motif in vitro
[1] = test system: c-Myc-dependent oncogenic transformation; settings: versus transformation dependent on Jun

Chain of c-Myc/Max dimerization (P01106 whole entry): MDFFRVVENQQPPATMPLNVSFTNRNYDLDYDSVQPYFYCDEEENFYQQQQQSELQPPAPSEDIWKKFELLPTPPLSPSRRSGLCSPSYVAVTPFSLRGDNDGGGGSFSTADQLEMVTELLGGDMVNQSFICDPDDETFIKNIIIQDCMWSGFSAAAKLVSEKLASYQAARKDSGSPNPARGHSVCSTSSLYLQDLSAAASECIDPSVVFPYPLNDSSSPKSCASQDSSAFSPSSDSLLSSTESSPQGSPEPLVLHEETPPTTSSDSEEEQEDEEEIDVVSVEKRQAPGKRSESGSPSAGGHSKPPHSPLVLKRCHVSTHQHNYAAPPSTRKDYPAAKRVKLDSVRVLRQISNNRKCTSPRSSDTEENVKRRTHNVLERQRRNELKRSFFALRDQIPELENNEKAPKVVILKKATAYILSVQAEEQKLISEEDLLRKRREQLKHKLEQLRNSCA

Structure (SMILES): CN(C)CCCNc1cc(O)c2c(c1O)C(=O)c1ccccc1C2=O [MYRA-A]
- c-Myc/Max dimerization (c-Myc/Max dimerization): without interfering
- inhibition of DNA binding of Myc family proteins (Myc family proteins): inhibit DNA binding

Structure (SMILES): COc1ccc(CNC(=O)c2cc3nc(-c4cccs4)cc(C(F)(F)F)n3n2)cc1 [Mycro1]
- preference for inhibition of c-Myc/Max association over related transcription factors (c-Myc/Max dimerization): show a preference

Structure (SMILES): O=C(NCc1cccs1)c1cc2nc(-c3cccs3)cc(C(F)(F)F)n2n1 [Mycro2]
- preference for inhibition of c-Myc/Max association over related transcription factors (c-Myc/Max dimerization): show a preference

Structure (SMILES): COc1ccc(CN(C(=O)c2ccccn2)C(C(=O)NC2CCCCC2)c2ccc3cc(OCC(=O)OC(C)(C)C)ccc3c2)cc1 (centres unmarked) [NY2267]
- inhibition of c-Myc-dependent oncogenic transformation [1]: inhibited c-Myc-dependent oncogenic transformation with preference over transformation dependent on Jun
